Assay results as given in patent US6071884A, “Pharmaceutical compositions and therapeutic methods” (Kirin Beer Kabushiki Kaisha, priority 1992, dated 2000).

Experiments:
[1] = tested on: marrow cells (mononuclear cell fraction); test: Proliferation-stimulating effect on marrow cell of mouse (3H-TdR uptake); type: cell-based, mouse (BALB/c); settings: percentage of control, 72 h; for activity at 0.1 µg/mL: 10^-1 μg/ml; for activity at 0.01 µg/mL: 10^-2 μg/ml; for activity at 0.001 µg/mL: 10^-3 μg/ml; for activity at 1 µg/mL: 10^0 μg/ml
Procedure, shortened: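 Mononuclear marrow cell fraction from 7-week-old female BALB/c mouse thigh bone, 1.5×10^6 cells/ml in 10% FCS RPMI 1640, cultured with test sample 72 h at 37° C. ³H-thymidine (0.5 μCi/well) then added for 8 h; nuclear ³H-TdR uptake counted by liquid scintillation.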

[2] = tested on: mononuclear cell fraction of human umbilical cord blood; test: Proliferation-stimulating effect on mononuclear cell fraction of human umbilical cord blood (3H-TdR uptake); type: cell-based; settings: 96 h, percentage of control, 4 days; for activity at 0.1 µg/mL: 10^-1 μg/ml; for activity at 0.01 µg/mL: 10^-2 μg/ml; for activity at 0.001 µg/mL: 10^-3 μg/ml
Excerpt: Pharmacological Test 3: Proliferation-Stimulating Effect on Mononuclear Cell Fraction of Human Umbilical Cord Blood
It is extremely difficult to obtain human marrow cells. In addition, human umbilical cord blood contains stem cells (Nakahata, T. & Ogwa, M., J. Clin. Inveet. 70, 1324-1328 (1982)), so that it can be a good source of hematopoietic stem/progenitor cell supply (H. E. Broxneyer et al, Proc. Natl. Acad. Sci. USA, 86, 3828-3832 (1989)). For these reasons, the effect on human was examined by using, instead of human marrow cells, human umbilical cord blood.
To human umbilical cord blood was added an equal amount of RPMI 1640. This was placed on a Lymphoprep and centrifugal. The mononuclear cell fraction (MNF) thus obtained was used in the following experiment.
The concentration of the MNF was adjusted to 1×10^6 cells/ml by using an RPMI 1640 added with 10% auto-blood plasma as a culture medium. 10 μl/well of a sample with a predetermined concentration and 100 μl/well of the above-prepared MNF were placed on a round-bottomed 96 well plate and incubated under the conditions of 37° C. and 5% CO2 for 4 days. Thereafter, 0.5 μCi/well of ^3 H-TdR was added. After 8 hour incubation, the cells were harvested, and the amount of the 3H-TdR taken in the nuclei was measured by a liquid scintillation counter.

[3] = Life-span-increasing effect on irradiation of a lethal dose of radiation; type: in vivo, mouse (BDF1); settings: 10 mice/group, 9 Gy X-ray, 0.1 mg/kg i.v. days 0, 4, 8
Protocol: Pharmacological Test 4: Life-Span-Increasing Effect on Irradiation of a Lethal Dose of Radiation
An experiment was carried out by using 6 week old female BDF1 mice purchased from Japan SLC Co., Ltd., with 10 mice made one group.
The entire bodies of the entire body of the mice were irradiated with 9 Gy of X-rays by using a Hitachi X-ray irradiator (MBR-1520R), and the day on which the X-ray was irradiated was referred to as "day 0".

blood platelets [4] = test: Thrombocytopenia-inhibiting effect in X-ray-irradiated mice; type: in vivo, mouse (BDF1); settings: 10 days after 5 Gy X-ray; 0.1 mg/kg i.v. within 2 h; mean ± SD; vehicle per series 10.3, 6.8, 6.7; non-treatment 68.2, 96.9, 73.0
Procedure, shortened: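 Female BDF1 mice, 6 weeks old, six per group, given 5 Gy whole-body X-ray, then 0.1 mg/kg i.v. via tail vein within 2 hours. Platelets counted by hemocytometer in fundus-vein blood 10 days later; untreated and vehicle groups run alongside.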

blood platelets [5] = test: Blood-platelet-increasing effect upon normal mouse; type: in vivo, mouse (BDF1); settings: normal mice; 6 days after 0.1 mg/kg i.v.; mean ± SD; vehicle per series 58.2, 63.0, 71.1
Procedure, shortened: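 Female BDF1 mice, 6 weeks old (5 per group), received test sample at 0.1 mg/kg into the caudal vein. Six days later, fundus-vein blood was taken and platelets counted on a multi-channel hemocytometer, compared against vehicle-treated animals.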

[6] = day 10, controls per series 10, 10, 10, 10, 10, 8
[7] = day 15, controls per series 8, 9, 5, 5, 7, 1
[8] = day 20, controls per series 4, 5, 1, 2, 3, 0
[9] = day 25, controls per series 3, 3, 0, 0, 2, 0
[10] = day 30, controls per series 1, 1, 0, 0, 0, 0

## CCCCCCCCCCCCCCCCCCCCCCCC(=O)N[C@@H](CO[C@H]1O[C@H](CO)[C@H](O)[C@H](O)[C@H]1O)[C@H](O)[C@H](O)CCCCCCCCCCCCCC [Compound 16, (2S,3S,4R)-1-(α-D-galactopyranosyloxy)-2-tetracosanoylamino-3,4-octadecanediol]
[1]
  activity at 0.1 µg/mL: 495%
  activity at 0.01 µg/mL: 152%
  activity at 0.001 µg/mL: 115%
[2]
  activity at 0.1 µg/mL: 311%
  activity at 0.01 µg/mL: 204%
  activity at 0.001 µg/mL: 216%
[3]; [6]
  Number of Surviving Mice: 10 mice
[3]; [7]
  Number of Surviving Mice: 6 mice
[3]; [8]
  Number of Surviving Mice: 6 mice
[3]; [9]
  Number of Surviving Mice: 6 mice
[3]; [10]
  Number of Surviving Mice: 6 mice
[3]; day 35, all controls 0
  Number of Surviving Mice: 6 mice
[3]; day 40, all controls 0
  Number of Surviving Mice: 6 mice
Blood platelets [4]
  Number of Blood Platelets: 21.1 ± 6.2 × 10^4 /μl
Blood platelets [5]
  Number of Blood Platelets: 114.7 ± 13.0 × 10^4 /μl

## CCCCCCCCCCCCCCCCCCCCCCCC(=O)N[C@@H](CO[C@H]1O[C@H](CO)[C@H](O)[C@H](O)[C@H]1O)[C@H](O)[C@H](O)CCCCCCCCCCCCC [Compound 17, (2S,3S,4R)-1-(α-D-galactopyranosyloxy)-2-tetracosanoylamino-3,4-heptadecanediol]
[1]
  activity at 0.1 µg/mL: 462%
  activity at 0.01 µg/mL: 149%
  activity at 0.001 µg/mL: 159%
[2]
  activity at 0.1 µg/mL: 318%
  activity at 0.01 µg/mL: 233%
  activity at 0.001 µg/mL: 98%
[3]; [6]
  Number of Surviving Mice: 10 mice
[3]; [7]
  Number of Surviving Mice: 10 mice
[3]; [8]
  Number of Surviving Mice: 9 mice
[3]; [9]
  Number of Surviving Mice: 9 mice
[3]; [10]
  Number of Surviving Mice: 9 mice
[3]; day 35, all controls 0
  Number of Surviving Mice: 9 mice
[3]; day 40, all controls 0
  Number of Surviving Mice: 9 mice
Blood platelets [4]
  Number of Blood Platelets: 18.5 ± 4.4 × 10^4 /μl
Blood platelets [5]
  Number of Blood Platelets: 92.1 ± 11.3 × 10^4 /μl

## CCCCCCCCCCCCCCCCCCCCCCCC(=O)N[C@@H](CO[C@H]1O[C@H](CO)[C@H](O)[C@H](O)[C@H]1O)[C@H](O)[C@H](O)CCCCCCCCCCC [Compound 18, (2S,3S,4R)-1-(α-D-galactopyranosyloxy)-2-tetracosanoylamino-3,4-pentadecanediol]
[1]
  activity at 0.1 µg/mL: 472%
  activity at 0.01 µg/mL: 124%
  activity at 0.001 µg/mL: 129%
[2]
  activity at 0.1 µg/mL: 298%
  activity at 0.01 µg/mL: 177%
  activity at 0.001 µg/mL: 135%
[3]; [6]
  Number of Surviving Mice: 10 mice
[3]; [7]
  Number of Surviving Mice: 10 mice
[3]; [8]
  Number of Surviving Mice: 8 mice
[3]; [9]
  Number of Surviving Mice: 7 mice
[3]; [10]
  Number of Surviving Mice: 7 mice
[3]; day 35, all controls 0
  Number of Surviving Mice: 7 mice
[3]; day 40, all controls 0
  Number of Surviving Mice: 7 mice
Blood platelets [4]
  Number of Blood Platelets: 24.3 ± 8.6 × 10^4 /μl
Blood platelets [5]
  Number of Blood Platelets: 111.7 ± 5.4 × 10^4 /μl

## CCCCCCCCCCCCCCCCCCCCCCCCCC(=O)N[C@@H](CO[C@H]1O[C@H](CO)[C@H](O)[C@H](O)[C@H]1O)[C@H](O)[C@H](O)CCCCCCCCCCCCC [Compound 20, (2S,3S,4R)-1-(α-D-galactopyranosyloxy)-2-hexacosanoylamino-3,4-heptadecanediol]
[1]
  activity at 1 µg/mL: 982%
  activity at 0.1 µg/mL: 466%
  activity at 0.01 µg/mL: 201%
  activity at 0.001 µg/mL: 67%
[2]
  activity at 0.1 µg/mL: 692%
  activity at 0.01 µg/mL: 474%
  activity at 0.001 µg/mL: 507%
[3]; [6]
  Number of Surviving Mice: 10 mice
[3]; [7]
  Number of Surviving Mice: 8 mice
[3]; [8]
  Number of Surviving Mice: 7 mice
[3]; [9]
  Number of Surviving Mice: 7 mice
[3]; [10]
  Number of Surviving Mice: 6 mice
[3]; day 35, all controls 0
  Number of Surviving Mice: 6 mice
[3]; day 40, all controls 0
  Number of Surviving Mice: 6 mice
Blood platelets [4]
  Number of Blood Platelets: 19.8 ± 7.3 × 10^4 /μl
Blood platelets [5]
  Number of Blood Platelets: 110.9 ± 10.6 × 10^4 /μl

## CCCCCCCCCCCCCCCCCCCCCC[C@@H](O)C(=O)N[C@@H](CO[C@H]1O[C@H](CO)[C@H](O)[C@H](O)[C@H]1O)[C@H](O)[C@H](O)CCCCCCCCCCCCCC [Compound 21, (2S,3S,4R)-1-(α-D-galactopyranosyloxy) -2-[(R) -2-hydroxytetracosanoylamino]-3,4-octadecanediol]
[1]
  activity at 1 µg/mL: 799%
  activity at 0.1 µg/mL: 244%
  activity at 0.01 µg/mL: 96%
  activity at 0.001 µg/mL: 84%
[2]
  activity at 0.1 µg/mL: 552%
  activity at 0.01 µg/mL: 530%
  activity at 0.001 µg/mL: 305%
[3]; [6]
  Number of Surviving Mice: 10 mice
[3]; [7]
  Number of Surviving Mice: 10 mice
[3]; [8]
  Number of Surviving Mice: 10 mice
[3]; [9]
  Number of Surviving Mice: 10 mice
[3]; [10]
  Number of Surviving Mice: 10 mice
[3]; day 35, all controls 0
  Number of Surviving Mice: 10 mice
[3]; day 40, all controls 0
  Number of Surviving Mice: 10 mice
Blood platelets [4]
  Number of Blood Platelets: 22.7 ± 3.7 × 10^4 /μl
Blood platelets [5]
  Number of Blood Platelets: 94.8 ± 7.7 × 10^4 /μl

## CCCCCCCCCCCCCCCCCCCCCC[C@@H](O)C(=O)N[C@@H](CO[C@H]1O[C@H](CO)[C@H](O)[C@H](O)[C@H]1O)[C@H](O)[C@H](O)CCCCCCCCCCCCC [Compound 22, (2S,3S,4R)-1-(α-D-galactopyranosyloxy)-2-[(R)-2-hydroxytetracosanoylamino]-3,4-heptadecanediol]
[1]
  activity at 1 µg/mL: 613%
  activity at 0.1 µg/mL: 226%
  activity at 0.01 µg/mL: 116%
  activity at 0.001 µg/mL: 104%
[2]
  activity at 0.1 µg/mL: 362%
  activity at 0.01 µg/mL: 357%
  activity at 0.001 µg/mL: 204%
[3]; [6]
  Number of Surviving Mice: 10 mice
[3]; [7]
  Number of Surviving Mice: 10 mice
[3]; [8]
  Number of Surviving Mice: 10 mice
[3]; [9]
  Number of Surviving Mice: 9 mice
[3]; [10]
  Number of Surviving Mice: 8 mice
[3]; day 35, all controls 0
  Number of Surviving Mice: 8 mice
[3]; day 40, all controls 0
  Number of Surviving Mice: 8 mice
Blood platelets [4]
  Number of Blood Platelets: 25.4 ± 5.1 × 10^4 /μl
Blood platelets [5]
  Number of Blood Platelets: 104.1 ± 7.7 × 10^4 /μl
